The values that follow come from ChEMBL document CHEMBL2021790, “Pyridone methylsulfone hydroxamate LpxC inhibitors for the treatment of serious gram-negative infections” (J Med Chem, 2012).

Values after ≈ are worked out from the molar mass of the structure shown.

Assay [1] concerns the target T1, UDP-3-O-acyl-N-acetylglucosamine deacetylase (Pseudomonas aeruginosa (strain ATCC 15692 / PAO1 / 1C / PRS 101 / LMG12228), UniProt P47205).
T1 sequence (P47205 whole entry): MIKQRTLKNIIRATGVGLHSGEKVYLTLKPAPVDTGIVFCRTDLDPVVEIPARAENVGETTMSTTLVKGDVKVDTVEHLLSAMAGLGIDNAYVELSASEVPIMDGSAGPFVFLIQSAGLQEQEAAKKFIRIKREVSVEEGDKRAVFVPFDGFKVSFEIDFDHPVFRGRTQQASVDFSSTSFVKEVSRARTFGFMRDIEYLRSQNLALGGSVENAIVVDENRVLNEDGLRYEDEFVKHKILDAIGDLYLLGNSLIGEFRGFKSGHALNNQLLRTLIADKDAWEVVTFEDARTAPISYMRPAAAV
Put plainly: Inhibition of Pseudomonas aeruginosa LpxC expressed in Escherichia coli using UDP-3-O-N-acetylglucosamine substrate measured after 30 mins by mass spectrometry.

Assay [2] concerns Pseudomonas aeruginosa. Put plainly: Antimicrobial activity against Pseudomonas aeruginosa PA3919 with (delta(mexAB-OprM)delta(mexXY)delta(MexZ) phenotype after 16 to 20 hrs by 2-fold microbroth dilution method. Format: functional. (In broth dilution the organism is exposed to a series of concentrations in liquid medium.)
The test system of assay [3] is Pseudomonas aeruginosa. Put plainly: Antimicrobial activity against wild type Pseudomonas aeruginosa PA01 after 16 to 20 hrs by 2-fold microbroth dilution method. Format: functional.

Broadly, the IC50 is the concentration that gives 50% inhibition. A lower IC50 goes with greater potency. What is called MIC is the lowest concentration found to suppress growth. The low end stands for inhibition by little substance, the high end for a need for much substance. The compound `C[C@@](CCn1ccc(-c2ccccn2)cc1=O)(C(=O)NO)S(C)(=O)=O` gave an IC50 in assay [1] of 60 nM. The MIC in the assay with Pseudomonas aeruginosa [2] turned out to be 0.25 µg/mL (≈ 0.684 µM); against Pseudomonas aeruginosa [3], 4 µg/mL (≈ 10.9 µM).
`COc1cccc(-c2ccn(CC[C@](C)(C(=O)NO)S(C)(=O)=O)c(=O)c2)c1` had an IC50 in assay [1] of 3.7 nM. The values for the MIC in the assay on Pseudomonas aeruginosa [2] and against Pseudomonas aeruginosa [3] were 0.03 µg/mL (≈ 0.0761 µM) and 1 µg/mL (≈ 2.54 µM), respectively.
As for `C[C@@](CCn1ccc(-c2ccccc2)c(F)c1=O)(C(=O)NO)S(C)(=O)=O`, the IC50 in assay [1] was found to be 4.9 nM. Moreover, the MIC in the assay with Pseudomonas aeruginosa [2] stood at 0.015 µg/mL (≈ 0.0392 µM); in the assay with Pseudomonas aeruginosa [3], 1 µg/mL (≈ 2.61 µM).
The compound `CC(C)(C)c1ccn(CC[C@](C)(C(=O)NO)S(C)(=O)=O)c(=O)c1` gave an IC50 in assay [1] of 69 nM. For the same compound, the MIC against Pseudomonas aeruginosa [2] turned out to be 0.25 µg/mL (≈ 0.726 µM); against Pseudomonas aeruginosa [3], 8 µg/mL (≈ 23.2 µM).
For `Cc1ccn(CC[C@](C)(C(=O)NO)S(C)(=O)=O)c(=O)c1`, the IC50 in assay [1] was more than 100 nM. Also, the values for the MIC in the assay with Pseudomonas aeruginosa [2] and against Pseudomonas aeruginosa [3] were 8 µg/mL (≈ 26.5 µM) and 64 µg/mL (≈ 212 µM), respectively.
Taken in the same sequence, the figures for `C[C@@](CCn1ccc(C2=CCCCC2)cc1=O)(C(=O)NO)S(C)(=O)=O` were 4.1 nM, 0.03 µg/mL (≈ 0.0814 µM) and 0.5 µg/mL (≈ 1.36 µM).
For `Cc1cc(-c2ccccc2)cc(=O)n1CC[C@](C)(C(=O)NO)S(C)(=O)=O`, in that order: 22 nM, 0.125 µg/mL (≈ 0.33 µM) and 4 µg/mL (≈ 10.6 µM).
In assay [1], `C[C@@](CCn1ccc(CCc2ccccc2)cc1=O)(C(=O)NO)S(C)(=O)=O` returned an IC50 of 6 nM. Besides, the MIC in the assay on Pseudomonas aeruginosa [2] was 0.03 µg/mL (≈ 0.0764 µM); in the assay on Pseudomonas aeruginosa [3], 2 µg/mL (≈ 5.1 µM).
With `C[C@@](CCn1ccc(-c2ccc(-c3ccon3)cc2)cc1=O)(C(=O)NO)S(C)(=O)=O`, in assay [1], inhibition was half-maximal at 1.1 nM (IC50). Further, the MIC in the assay with Pseudomonas aeruginosa [2] came to 0.015 µg/mL (≈ 0.0348 µM); with Pseudomonas aeruginosa [3], 0.25 µg/mL (≈ 0.579 µM).
For `CC(CCn1ccc(C2CCCCC2)cc1=O)(C(=O)NO)S(C)(=O)=O` (racemic), half-maximal inhibition in assay [1] (IC50) was put at 11 nM. The MIC against Pseudomonas aeruginosa [2] came out at 0.06 µg/mL (≈ 0.162 µM); with Pseudomonas aeruginosa [3], 2 µg/mL (≈ 5.4 µM).
`Cc1cc(C)cc(-c2ccn(CC[C@](C)(C(=O)NO)S(C)(=O)=O)c(=O)c2)c1` had an IC50 in assay [1] of 5.3 nM. The minimum inhibitory concentration (MIC) is 0.125 µg/mL (≈ 0.318 µM) in the assay on Pseudomonas aeruginosa [2] and 2 µg/mL (≈ 5.1 µM) against Pseudomonas aeruginosa [3].
As to `COc1ccc(-c2ccn(CC[C@](C)(C(=O)NO)S(C)(=O)=O)c(=O)c2)cc1`, the MIC in the assay with Pseudomonas aeruginosa [2] was 0.008 µg/mL (≈ 0.0203 µM); in the assay with Pseudomonas aeruginosa [3], 0.125 µg/mL (≈ 0.317 µM).
`COc1cnc(-c2ccc(-c3ccn(CC[C@](C)(C(=O)NO)S(C)(=O)=O)c(=O)c3)cc2)nc1` came in with a concentration for half-maximal inhibition (IC50) in assay [1] of 1.2 nM. Besides, the MIC worked out at 0.03 µg/mL (≈ 0.0635 µM) against Pseudomonas aeruginosa [2] and 0.25 µg/mL (≈ 0.529 µM) in the assay on Pseudomonas aeruginosa [3].
In assay [1], `CC(CCc1ccc(-c2ccccc2)nc1O)(C(=O)NO)S(C)(=O)=O` (racemic) came in with an IC50 of 53 nM. Moreover, the MIC against Pseudomonas aeruginosa [2] was 1 µg/mL (≈ 2.74 µM); with Pseudomonas aeruginosa [3], 32 µg/mL (≈ 87.8 µM).
Taken in the same sequence, the figures for `CC(CCc1ccc(-c2ccccc2)nc1)(C(=O)NO)S(C)(=O)=O` (racemic) were 49 nM, 0.25 µg/mL (≈ 0.718 µM) and 8 µg/mL (≈ 23 µM).
In assay [1], `CC(CCc1ncc(-c2ccccc2)cn1)(C(=O)NO)S(C)(=O)=O` (racemic) registered an IC50 of more than 100 nM. Further, the results for the MIC against Pseudomonas aeruginosa [2] and in the assay with Pseudomonas aeruginosa [3] were 4 µg/mL (≈ 11.4 µM) and more than 64 µg/mL, respectively.
In turn, `COc1ccccc1-c1ccn(CC[C@](C)(C(=O)NO)S(C)(=O)=O)c(=O)c1` came in with an IC50 in assay [1] of 12 nM. Moreover, the values for the MIC against Pseudomonas aeruginosa [2] and with Pseudomonas aeruginosa [3] were 0.125 µg/mL (≈ 0.317 µM) and 4 µg/mL (≈ 10.1 µM), respectively.
As for `C[C@@](CCn1ccc(/C=C/c2ccccc2)cc1=O)(C(=O)NO)S(C)(=O)=O`, 3.2 nM corresponded to half-maximal inhibition in assay [1] (IC50). Besides, the results for the MIC against Pseudomonas aeruginosa [2] and against Pseudomonas aeruginosa [3] were 0.03 µg/mL (≈ 0.0768 µM) and 0.5 µg/mL (≈ 1.28 µM), respectively.
`CC(CCc1ccc(-c2ccccc2)cn1)(C(=O)NO)S(C)(=O)=O` (racemic): the IC50 in assay [1] was 13 nM. The MIC came out at 0.125 µg/mL (≈ 0.359 µM) against Pseudomonas aeruginosa [2] and 4 µg/mL (≈ 11.5 µM) against Pseudomonas aeruginosa [3].
In assay [1], `COc1cccc(-c2ccn(CC[C@](C)(C(=O)NO)S(C)(=O)=O)c(=O)c2)c1F` yielded an IC50 of 1.8 nM. Further, the values for the minimal inhibitory concentration (MIC) against Pseudomonas aeruginosa [2] and against Pseudomonas aeruginosa [3] were 0.015 µg/mL (≈ 0.0364 µM) and 0.5 µg/mL (≈ 1.21 µM), respectively.
`C[C@@](CCn1ccc(-c2cccnc2)cc1=O)(C(=O)NO)S(C)(=O)=O` had an IC50 in assay [1] of more than 100 nM. Besides, the minimal inhibitory concentration (MIC) was 2 µg/mL (≈ 5.47 µM) in the assay with Pseudomonas aeruginosa [2] and more than 64 µg/mL against Pseudomonas aeruginosa [3].
In the case of `C[C@@](CCn1ccc(-c2ccc(-c3nccs3)cc2)cc1=O)(C(=O)NO)S(C)(=O)=O`, half-maximal inhibition in assay [1] (IC50) was put at 1.1 nM. Besides, the MIC against Pseudomonas aeruginosa [2] worked out at 0.015 µg/mL (≈ 0.0335 µM); against Pseudomonas aeruginosa [3], 0.25 µg/mL (≈ 0.559 µM).
In assay [1], `COc1ccc(-c2ccn(CC[C@](C)(C(=O)NO)S(C)(=O)=O)c(=O)c2)cc1F` yielded a 50% inhibitory concentration (IC50) of 2 nM. Also, the minimal inhibitory concentration (MIC) came out at 0.03 µg/mL (≈ 0.0727 µM) in the assay with Pseudomonas aeruginosa [2] and 0.5 µg/mL (≈ 1.21 µM) in the assay with Pseudomonas aeruginosa [3].
Take `COc1ncc(-c2ccc(-c3ccn(CC[C@](C)(C(=O)NO)S(C)(=O)=O)c(=O)c3)cc2)cn1`: the IC50 in assay [1] stood at 2 nM. Besides, the MIC amounted to 0.03 µg/mL (≈ 0.0635 µM) with Pseudomonas aeruginosa [2] and 0.5 µg/mL (≈ 1.06 µM) with Pseudomonas aeruginosa [3].
Regarding `C[C@@](CCn1ncc(-c2ccccc2)cc1=O)(C(=O)NO)S(C)(=O)=O`, the concentration for half-maximal inhibition (IC50) in assay [1] is more than 72 nM. The MIC in the assay with Pseudomonas aeruginosa [2] was 1 µg/mL (≈ 2.74 µM); against Pseudomonas aeruginosa [3], 32 µg/mL (≈ 87.6 µM).
Compound `Cc1c(-c2ccccc2)ccn(CC[C@](C)(C(=O)NO)S(C)(=O)=O)c1=O` yielded an IC50 in assay [1] of 6.7 nM. The values for the MIC in the assay with Pseudomonas aeruginosa [2] and in the assay with Pseudomonas aeruginosa [3] were 0.015 µg/mL (≈ 0.0396 µM) and 0.5 µg/mL (≈ 1.32 µM), respectively.
In assay [1], `C[C@@](CCn1ccc(-c2cc(F)ccc2F)cc1=O)(C(=O)NO)S(C)(=O)=O` displayed an IC50 of 4.4 nM. The MIC against Pseudomonas aeruginosa [2] was 0.03 µg/mL (≈ 0.0749 µM); against Pseudomonas aeruginosa [3], 1 µg/mL (≈ 2.5 µM).
In turn, `C[C@@](CCn1ccc(-c2ccncc2)cc1=O)(C(=O)NO)S(C)(=O)=O` registered an IC50 in assay [1] of 39 nM. Moreover, the MIC in the assay on Pseudomonas aeruginosa [2] was 0.5 µg/mL (≈ 1.37 µM); in the assay with Pseudomonas aeruginosa [3], 32 µg/mL (≈ 87.6 µM).
As for `C[C@@](CCn1ccc(-c2ccc(-c3ccncc3)cc2)cc1=O)(C(=O)NO)S(C)(=O)=O`, the IC50 in assay [1] turned out to be 1.2 nM. Also, the values for the MIC against Pseudomonas aeruginosa [2] and in the assay with Pseudomonas aeruginosa [3] were 0.03 µg/mL (≈ 0.0679 µM) and 0.5 µg/mL (≈ 1.13 µM), respectively.
`C[C@@](CCn1ccc(-c2ccc(F)cc2)cc1=O)(C(=O)NO)S(C)(=O)=O` gave an IC50 in assay [1] of 2.9 nM. In addition, the MIC came out at 0.008 µg/mL (≈ 0.0209 µM) with Pseudomonas aeruginosa [2] and 0.25 µg/mL (≈ 0.654 µM) in the assay with Pseudomonas aeruginosa [3].
The compound `Cc1cccc(C)c1-c1ccn(CC[C@](C)(C(=O)NO)S(C)(=O)=O)c(=O)c1` had an IC50 in assay [1] of more than 87 nM. For the same compound, the MIC is 2 µg/mL (≈ 5.1 µM) against Pseudomonas aeruginosa [2] and 64 µg/mL (≈ 163 µM) against Pseudomonas aeruginosa [3].
In assay [1], `C[C@@](CCn1ccc(-c2cccc(F)c2)cc1=O)(C(=O)NO)S(C)(=O)=O` showed an IC50 of 3 nM. The results for the MIC in the assay with Pseudomonas aeruginosa [2] and against Pseudomonas aeruginosa [3] were 0.015 µg/mL (≈ 0.0392 µM) and 0.5 µg/mL (≈ 1.31 µM), respectively.
The compound `C[C@@](CCn1ccc(-c2ccccc2F)cc1=O)(C(=O)NO)S(C)(=O)=O` had an IC50 in assay [1] of 2.2 nM. Further, the MIC worked out at 0.015 µg/mL (≈ 0.0392 µM) against Pseudomonas aeruginosa [2] and 0.25 µg/mL (≈ 0.654 µM) with Pseudomonas aeruginosa [3].
As for `C[C@@](CCn1ccc(-c2ccc(-c3ccccn3)cc2)cc1=O)(C(=O)NO)S(C)(=O)=O`, the IC50 in assay [1] was found to be 1.3 nM. The minimum inhibitory concentration (MIC) against Pseudomonas aeruginosa [2] worked out at 0.015 µg/mL (≈ 0.034 µM); against Pseudomonas aeruginosa [3], 0.5 µg/mL (≈ 1.13 µM).
With `C[C@@](CCn1ccc(-c2c(F)cccc2F)cc1=O)(C(=O)NO)S(C)(=O)=O`, half-maximal inhibition in assay [1] (IC50) required 4.8 nM. Besides, the MIC in the assay on Pseudomonas aeruginosa [2] turned out to be 0.03 µg/mL (≈ 0.0749 µM); in the assay on Pseudomonas aeruginosa [3], 0.5 µg/mL (≈ 1.25 µM).
For `C[C@@](CCn1ccc(-c2cc(F)cc(F)c2)cc1=O)(C(=O)NO)S(C)(=O)=O`, in that order: 3.9 nM, 0.03 µg/mL (≈ 0.0749 µM) and 1 µg/mL (≈ 2.5 µM).
For `Cc1cn(CC[C@](C)(C(=O)NO)S(C)(=O)=O)c(=O)cc1-c1ccccc1`, in that order: 30 nM, 0.125 µg/mL (≈ 0.33 µM) and 8 µg/mL (≈ 21.1 µM).
Taken in the same sequence, the figures for `C[C@@](CCn1ccc(-c2ccccc2)nc1=O)(C(=O)NO)S(C)(=O)=O` were 57 nM, 0.5 µg/mL (≈ 1.37 µM) and 16 µg/mL (≈ 43.8 µM).
